Assay results from patent publication US20150011566A1, “N-PHENYLPIPERAZINE DERIVATIVES THAT ARE ANTAGONISTS OF A1A, A1D ADRENOCEPTORS AND 5-HT1A RECEPTORS FOR THE TREATMENT OF BENIGN PROSTATE HYPERPLASIA, PHARMACEUTICAL COMPOSITIONS CONTAINING THE SAME” (UNIVERSIDADE FEDERAL DO RIO DE JANEIRO-UFRJ, priority 2012, published 2015).
Read-outs that look alike come from different tables or passages of the source.

Columns and labels:
5-HT1A receptors [1] = target: T1, 5-HT1A receptors (Rattus norvegicus, UniProt P19327); experiment: Binding of [3H]-8-OH-DPAT to 5-HT1A receptors (rat hippocampus membranes)
T1 construct: Intrinsic Activity at Native 5-HT1A Receptors; from tissue; host or cells: rat hippocampus membranes
T1 sequence (P19327 1-422): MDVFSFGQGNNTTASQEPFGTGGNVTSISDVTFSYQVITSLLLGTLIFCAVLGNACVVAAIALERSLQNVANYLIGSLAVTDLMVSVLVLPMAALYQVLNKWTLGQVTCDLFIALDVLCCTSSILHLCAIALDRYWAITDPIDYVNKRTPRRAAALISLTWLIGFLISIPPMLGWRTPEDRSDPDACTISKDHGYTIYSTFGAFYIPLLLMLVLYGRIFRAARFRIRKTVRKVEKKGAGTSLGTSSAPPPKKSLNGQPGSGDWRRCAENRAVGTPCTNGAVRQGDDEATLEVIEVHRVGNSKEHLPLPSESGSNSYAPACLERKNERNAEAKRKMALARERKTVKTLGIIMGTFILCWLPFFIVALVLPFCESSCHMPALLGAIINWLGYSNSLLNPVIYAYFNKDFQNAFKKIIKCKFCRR
Method: (§1) Membrane preparations of rat hippocampus according to previously described by HALL et al (1985) and PEROUTKA (1986) were performed. The homogenization and centrifugation steps were performed identically to that described above for receptors α2A and 5-HT2A receptors.
(§2) The binding assays for the 5-HT1A receptors were performed as described previously in the literature and previously standardized in the laboratory through saturation experiments. […] (solvent for dilution of LDT's) for the determination of total binding, or 50 μL non-radioative serotonin at 10 μM to determine the non-specific binding (final volume of 500 μL). Assays were performed in triplicate. […] Assays were performed in triplicate.
(§3) After the incubation period, the reaction was stopped by adding 4 ml of ice-cold solution containing 5 mM Tris (pH 7.4), followed by vacuum filtration on glass fiber filter (GMF 3, Filtrak®) previously soaked with solution 0.5% polyethylenoimine. The filters were washed three times with 4 mL of ice-cold solution containing 5 mM Tris (pH 7.4) under vacuum to remove all free radioligand. Then the filters were dried and placed in vials containing 5 ml scintillation fluid (composition: 4% PPO, 0.1% POPOP w/p in toluene). The radioactivity retained on the filters was then determined in a liquid scintillation counter (Packard Tri-Carb 1600 TR). […] For these receptors were also determined the […] and Ki parameters.

muscarinic receptors = assay type: binding, rat; conditions: Table 14; for Ki: Cheng-Prusoff
5-HT1A receptors [2] = target: T1, 5-HT1A receptors; experiment: Binding of [3H]p-MPPF with GTP to 5-HT1A receptors; intrinsic activity (Ki low/Ki high); conditions: for pharmacological classification: from Ki low/Ki high; for Ki value ratios for low and high affinity receptor states: in words
Method: as §1, §2, §3
The GTP presence displaces the GPCR to a state of low affinity (Lahti et al, 1992). The intrinsic activity of a substance can be estimated using GPCR agonist or antagonist radioligand appropriate to define the affinity of the substance in the state of high and low affinity receptor, respectively.

α2A receptors = target: T2, α2A receptors (Rattus norvegicus, UniProt P22909); experiment: Binding of [3H]RX821002 to α2A receptors (rat cortex membranes)
T2 construct: from tissue; host or cells: rat cortex membranes
T2 sequence (P22909 1-465): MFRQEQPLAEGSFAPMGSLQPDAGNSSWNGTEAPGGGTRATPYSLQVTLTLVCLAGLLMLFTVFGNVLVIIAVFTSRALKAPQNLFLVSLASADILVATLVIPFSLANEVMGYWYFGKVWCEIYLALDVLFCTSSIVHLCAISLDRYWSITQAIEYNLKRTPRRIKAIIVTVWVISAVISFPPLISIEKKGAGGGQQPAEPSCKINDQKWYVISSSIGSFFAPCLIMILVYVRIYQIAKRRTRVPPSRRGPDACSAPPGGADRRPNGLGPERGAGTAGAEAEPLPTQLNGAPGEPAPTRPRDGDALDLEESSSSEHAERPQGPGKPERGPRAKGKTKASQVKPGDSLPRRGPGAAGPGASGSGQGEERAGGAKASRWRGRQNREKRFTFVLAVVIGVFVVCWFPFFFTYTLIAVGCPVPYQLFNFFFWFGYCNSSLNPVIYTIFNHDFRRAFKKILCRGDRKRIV
Method: Membrane preparations of rat cortex as described previously in the literature were performed. The organs were homogenized in a Potter with the aid of a motor unit (Fisatom) and Teflon piston in the proportion of 20 parts of 50 mM Tris HCl (pH 7.4 at 4° C.) for one piece of material, three times for 30 seconds each time, at intervals the solution was allowed to stand on ice for 1 minute.
Then it was performed a centrifugation at 900×g for 10 minutes at 4° C. It was obtained a […] which was resuspended in solution cold 50 mM Tris-HCl (pH 7.4) and the same procedure was performed once more. The supernatant was then centrifuged at 48,000×g for 10 minutes at 4° C. yielding a pellet which was resuspended at a ratio of 20 parts of 50 mM Tris HCl (pH 7.4 at 4° C.) for one piece of material, and incubated at 37° C. for 10 minutes in order to remove the endogenous neurotransmitters. Finally, centrifugation two times more at 48,000×g was performed for 10 minutes at 4° C., and then the final pellet was resuspended in a solution of 50 mM Tris-HCl (pH 7.4).
Binding assays for the α2A receptor were performed as described previously in the literature and previously standardized in the laboratory by saturation experiments. […] Incubate for 60 minutes at 30° C., 150 membrane preparation of rat cortex contained 50 μL was suspended in 50 mM Tris-HCl into tubes containing 400 μL intermediate solution ([3H] RX821002 1.25 nM, 50 mM Tris (pH 7.4 at 37° C.) and 50 μL of different concentrations of LDT's (final concentration 10^−7-3×10^−5 M to LDT65-68) or 50 μL of 50 mM Tris-HCl pH 7.4 at 37° C. (solvent for dilution of the LDT's), to determine the total binding or 50 μL nonradioactive bitartrate adrenaline at 100 μM for determining the non-specific bounding (final volume 500 μL). Assays were performed in triplicate.
After the incubation period, the reaction was stopped by adding 4 mL ice cold solution containing 5 mM Tris (pH 7.4), followed by vacuum filtration on glass fiber filter (GMF 3, Filtrak®) previously soaked with solution 0.5% polyethylenoimine. The filters were washed three times with 4 mL of ice-cold solution containing 5 mM Tris (pH 7.4) under vacuum to remove all free radioligand. Then the filters were dried and placed in vials containing 5 ml scintillation fluid (composition: 4% PPO, 0.1% POPOP w/v in toluene). The radioactivity retained on the filters was then determined in a liquid scintillation counter (Packard Tri-Carb 1600 TR). Specific binding of [3H]RX821002 to a2A receptors was defined as the difference between total binding and non-specific binding. To these receptors were determined and IC50 and Ki parameters.

[3] = Ki high (nM), Table 13, agonist radioligand [3H] 8-OH-DPAT
[4] = Table 12, Cheng-Prusoff, read-out: Ki
[5] = Table 12, read-out: -log IC50 (converted)
[6] = Table 8, Cheng-Prusoff, read-out: Ki

Row | Structure (SMILES) | IC50 (5-HT1A receptors [1]) [nM] | Ki (5-HT1A receptors [1]; KI (M), Table 7, Cheng-Prusoff) [M] | -log 1050 (M) (muscarinic receptors) | Ki (muscarinic receptors) [nM] | Ki (5-HT1A receptors [1]; [3]) [M] | pharmacological classification (5-HT1A receptors [2]; Table 13) | other results
1 | COc1ccccc1N1CCN(CCc2ccccc2)CC1 [LDT 2] | 3.02 | 1.24e-09 |  |  |  |  | 
2 | COc1cccc(CCN2CCN(c3ccccc3OC)CC2)c1 [LDT 3] | 2.75 | 1.13e-09 | 4.26 ± 0.07 | 56700 | 1.79e-09 | antagonist | Ki value ratios for low and high affinity receptor states (5-HT1A receptors [2]): close to the unity; Ki (α2A receptors; [4]): 930 nM; IC50 (α2A receptors; [5]): 1100 nM
3 | COc1ccc(CCN2CCN(c3ccccc3OC)CC2)cc1 [LDT 4] | 2.4 | 9.88e-10 |  |  |  |  | 
4 | COc1ccc(CCN2CCN(c3ccccc3OC)CC2)cc1OC [LDT 5] | 6.17 | 2.54e-09 | 3.97 ± 0.06 | 108000 | 3.89e-09 | antagontist | IC50 (α2A receptors): 295 nM; Ki (α2A receptors): 240 nM
5 | COc1ccccc1N1CCN(CCC2CCCCC2)CC1 [LDT 6] |  |  |  |  |  |  | Ki (5-HT1A receptors [1]; Table 7, Cheng-Prusoff, read-out: KI): 2.42e-10 M; IC50 (5-HT1A receptors [1]; Table 7, read-out: log CI50 ± EPM (converted)): 0.589 nM
6 | CCOc1ccccc1N1CCN(CCc2ccc3c(c2)OCO3)CC1 [LDT 8] | 0.0575 |  | 4.48 ± 0.07 | 33900 | 1.8e-11 | partial antagonist | Ki (5-HT1A receptors [1]; Ki, text b157): 2.37e-11 M; Ki value ratios for low and high affinity receptor states (5-HT1A receptors [2]): close to the unity; Ki (5-HT1A receptors [2]; read-out: Ki low, Table 13, antagonist radioligand [3H] p-MPPF in the presence of GTP): 0.62 nM; Ki (α2A receptors; [4]): 550 nM; IC50 (α2A receptors; [5]): 603 nM
7 | CCN1CCN(c2ccccc2)CC1 [LDT 39] |  |  |  |  |  |  | log IC50 (M) (5-HT1A receptors [1]; Table 8): −5.93 ± 0.13 M; Ki (5-HT1A receptors [1]; [6]): 5.2e-07 M
8 | CCN1CCN(c2ccccc2OC)CC1 [LDT 62] |  |  |  |  |  |  | log IC50 (M) (5-HT1A receptors [1]; Table 8): −6.47 ± 0.10 M; Ki (5-HT1A receptors [1]; [6]): 1.47e-07 M
